According to PubChem BioAssay AID248 (DTP/NCI, 2004):
Where “and” joins values, the source holds several entries; their conditions need not be identical. Identical values can stand only once. Toxic doses and inconclusive results are not listed. No stated cut-off is given here; in the data, active means T/C of 150% or more; inactive means T/C below 125%.

Test system: L1210 leukemia ip in BDF1 mice, survival T/C
Assay: NCI In Vivo Anticancer Drug Screen. Data for tumor model L1210 Leukemia (intraperitoneal) in B6D2F1 (BDF1) mice
Details: higher = longer survival
Method in brief: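 Mice bearing the transplanted tumor received compound or vehicle. Survival of the treated group was divided by that of the vehicle-treated control group to give the ratio.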

[1] = endpoint: mean survival time, dose: 100.0 mg/kg/injection, schedule: Q01DX009 (ip), vehicle: saline with Tween-80
[2] = endpoint: mean survival time, dose: 200.0 mg/kg/injection, schedule: Q01DX009 (ip), vehicle: saline with Tween-80
[3] = endpoint: mean survival time, dose: 400.0 mg/kg/injection, schedule: Q01DX009 (ip), vehicle: saline with Tween-80
[4] = endpoint: mean survival time, dose: 100.0 mg/kg/injection, schedule: Q04DX003 (ip), vehicle: Klucel (hydroxypropylcellulose) (HPC)
[5] = endpoint: mean survival time, dose: 200.0 mg/kg/injection, schedule: Q04DX003 (ip), vehicle: Klucel (hydroxypropylcellulose) (HPC)
[6] = endpoint: mean survival time, dose: 400.0 mg/kg/injection, schedule: Q04DX003 (ip), vehicle: Klucel (hydroxypropylcellulose) (HPC)

Measured: T/C

COC(=O)C[C@](O)(CCCC(C)(C)O)C(=O)O[C@@H]1C(OC)=C[C@]23CCCN2CCc2cc4c(cc2[C@H]13)OCO4
inactive: endpoint: mean survival time, dose: 0.06 mg/kg/injection, schedule: Q01DX009 (ip), vehicle: water 110 % of control | endpoint: mean survival time, dose: 0.13 mg/kg/injection, schedule: Q01DX009 (ip), vehicle: water 111 % of control | endpoint: mean survival time, dose: 0.25 mg/kg/injection, schedule: Q01DX009 (ip), vehicle: acid diluted with saline 113 % of control | endpoint: mean survival time, dose: 0.25 mg/kg/injection, schedule: Q01DX009 (ip), vehicle: water 113 % of control and 123 % of control (2×) | endpoint: mean survival time, dose: 0.25 mg/kg/injection, schedule: Q03HX008 (ip), vehicle: acid diluted with saline 114 % of control | endpoint: mean survival time, dose: 0.25 mg/kg/injection, schedule: Q03HX016 (ip), vehicle: acid diluted with saline 108 % of control | endpoint: mean survival time, dose: 0.5 mg/kg/injection, schedule: Q01DX006 (iv), vehicle: acid diluted with saline 111 % of control | endpoint: mean survival time, dose: 0.5 mg/kg/injection, schedule: Q01DX009 (ip), vehicle: acid diluted with saline 120 % of control | endpoint: mean survival time, dose: 0.5 mg/kg/injection, schedule: Q01DX009 (oral), vehicle: acid diluted with saline 105 % of control | endpoint: mean survival time, dose: 0.5 mg/kg/injection, schedule: Q01DX009 (oral), vehicle: saline 103 % of control | endpoint: mean survival time, dose: 0.5 mg/kg/injection, schedule: Q01DX009 (sc), vehicle: acid diluted with saline 100 % of control | endpoint: mean survival time, dose: 0.5 mg/kg/injection, schedule: Q01DX009 (sc), vehicle: saline 112 % of control | endpoint: mean survival time, dose: 0.5 mg/kg/injection, schedule: Q03HX008 (ip), vehicle: acid diluted with saline 120 % of control | endpoint: mean survival time, dose: 0.5 mg/kg/injection, schedule: Q03HX016 (ip), vehicle: acid diluted with saline 117 % of control | endpoint: mean survival time, dose: 1.0 mg/kg/injection, schedule: Q01DX006 (iv), vehicle: acid diluted with saline 116 % of control | endpoint: mean survival time, dose: 1.0 mg/kg/injection, schedule: Q01DX009 (oral), vehicle: acid diluted with saline 107 % of control | endpoint: mean survival time, dose: 1.0 mg/kg/injection, schedule: Q01DX009 (oral), vehicle: saline 108 % of control | endpoint: mean survival time, dose: 1.0 mg/kg/injection, schedule: Q01DX009 (sc), vehicle: acid diluted with saline 117 % of control | endpoint: mean survival time, dose: 1.0 mg/kg/injection, schedule: Q01DX009 (sc), vehicle: saline 124 % of control | endpoint: mean survival time, dose: 1.0 mg/kg/injection, schedule: Q03HX008 (ip), vehicle: acid diluted with saline 120 % of control | endpoint: mean survival time, dose: 1.0 mg/kg/injection, schedule: Q03HX016 (ip), vehicle: acid diluted with saline 119 % of control | endpoint: mean survival time, dose: 1.0 mg/kg/injection, schedule: Q04DX003 (ip), vehicle: acid diluted with saline 110 % of control | endpoint: mean survival time, dose: 2.0 mg/kg/injection, schedule: Q01DX001 (ip), vehicle: acid diluted with saline 111 % of control | endpoint: mean survival time, dose: 2.0 mg/kg/injection, schedule: Q01DX001 (iv), vehicle: acid diluted with saline 113 % of control | endpoint: mean survival time, dose: 2.0 mg/kg/injection, schedule: Q01DX001 (oral), vehicle: acid diluted with saline 105 % of control | endpoint: mean survival time, dose: 2.0 mg/kg/injection, schedule: Q01DX001 (sc), vehicle: acid diluted with saline 109 % of control | endpoint: mean survival time, dose: 2.0 mg/kg/injection, schedule: Q01DX006 (iv), vehicle: acid diluted with saline 116 % of control | endpoint: mean survival time, dose: 2.0 mg/kg/injection, schedule: Q01DX009 (oral), vehicle: acid diluted with saline 117 % of control | endpoint: mean survival time, dose: 2.0 mg/kg/injection, schedule: Q01DX009 (oral), vehicle: saline 120 % of control | endpoint: mean survival time, dose: 2.0 mg/kg/injection, schedule: Q01DX009 (sc), vehicle: saline 116 % of control | endpoint: mean survival time, dose: 2.0 mg/kg/injection, schedule: Q08DX002 (ip), vehicle: acid diluted with saline 107 % of control | endpoint: mean survival time, dose: 4.0 mg/kg/injection, schedule: Q01DX001 (ip), vehicle: acid diluted with saline 114 % of control | endpoint: mean survival time, dose: 4.0 mg/kg/injection, schedule: Q01DX001 (iv), vehicle: acid diluted with saline 109 % of control | endpoint: mean survival time, dose: 4.0 mg/kg/injection, schedule: Q01DX001 (oral), vehicle: acid diluted with saline 109 % of control | endpoint: mean survival time, dose: 4.0 mg/kg/injection, schedule: Q01DX001 (sc), vehicle: acid diluted with saline 109 % of control | endpoint: mean survival time, dose: 4.0 mg/kg/injection, schedule: Q01DX006 (iv), vehicle: acid diluted with saline 122 % of control | endpoint: mean survival time, dose: 4.0 mg/kg/injection, schedule: Q01DX009 (ip), vehicle: acid diluted with saline 86 % of control | endpoint: mean survival time, dose: 4.0 mg/kg/injection, schedule: Q01DX009 (oral), vehicle: acid diluted with saline 123 % of control | endpoint: mean survival time, dose: 4.0 mg/kg/injection, schedule: Q01DX009 (sc), vehicle: acid diluted with saline 111 % of control | endpoint: mean survival time, dose: 4.0 mg/kg/injection, schedule: Q04DX003 (ip), vehicle: acid diluted with saline 119 % of control | endpoint: mean survival time, dose: 4.0 mg/kg/injection, schedule: Q08DX002 (ip), vehicle: acid diluted with saline 109 % of control | endpoint: mean survival time, dose: 8.0 mg/kg/injection, schedule: Q01DX001 (iv), vehicle: acid diluted with saline 114 % of control | endpoint: mean survival time, dose: 8.0 mg/kg/injection, schedule: Q04DX003 (ip), vehicle: acid diluted with saline 102 % of control | endpoint: mean survival time, dose: 125.0 micrograms/kg/injection, schedule: Q03HX024 (ip), vehicle: acid diluted with saline 119 % of control | endpoint: mean survival time, dose: 1000.0 micrograms/kg/injection, schedule: Q03HX024 (ip), vehicle: acid diluted with saline 89 % of control | endpoint: median survival time, dose: 1.0 mg/kg/injection, schedule: Q04DX003 (ip), vehicle: saline 110 % of control | endpoint: median survival time, dose: 2.0 mg/kg/injection, schedule: Q04DX003 (ip), vehicle: saline 113 % of control | endpoint: median survival time, dose: 4.0 mg/kg/injection, schedule: Q04DX003 (ip), vehicle: saline 100 % of control
active: endpoint: mean survival time, dose: 2.0 mg/kg/injection, schedule: Q01DX009 (ip), vehicle: acid diluted with saline 150 % of control

Cc1ccn(-c2ccccc2)n1
inactive: endpoint: mean survival time, dose: 100.0 mg/kg/injection, schedule: Q01DX009 (ip), vehicle: other 100 % of control | endpoint: mean survival time, dose: 100.0 mg/kg/injection, schedule: Q04DX003 (ip), vehicle: other 101 % of control | endpoint: mean survival time, dose: 200.0 mg/kg/injection, schedule: Q01DX009 (ip), vehicle: other 90 % of control | endpoint: mean survival time, dose: 200.0 mg/kg/injection, schedule: Q04DX003 (ip), vehicle: other 104 % of control | endpoint: mean survival time, dose: 400.0 mg/kg/injection, schedule: Q01DX009 (ip), vehicle: other 107 % of control | endpoint: mean survival time, dose: 400.0 mg/kg/injection, schedule: Q04DX003 (ip), vehicle: other 104 % of control

CCOC1(OCC)CC2C(=O)CCCC21OC(C)=O (stereo not given)
inactive: endpoint: mean survival time, dose: 75.0 mg/kg/injection, schedule: Q04DX002 (ip), vehicle: saline 111 % of control | endpoint: mean survival time, dose: 150.0 mg/kg/injection, schedule: Q04DX002 (ip), vehicle: saline 105 % of control | endpoint: mean survival time, dose: 300.0 mg/kg/injection, schedule: Q04DX002 (ip), vehicle: saline 101 % of control

OC(Cc1ccccc1)c1ccccc1 (stereo not given)
inactive: endpoint: mean survival time, dose: 50.0 mg/kg/injection, schedule: Q01DX001 (ip), vehicle: saline 100 % of control | endpoint: mean survival time, dose: 100.0 mg/kg/injection, schedule: Q01DX001 (ip), vehicle: saline 100 % of control | [1] 89 % of control | endpoint: mean survival time, dose: 200.0 mg/kg/injection, schedule: Q01DX001 (ip), vehicle: saline 93 % of control | [2] 98 % of control | endpoint: mean survival time, dose: 400.0 mg/kg/injection, schedule: Q01DX001 (ip), vehicle: saline 93 % of control | [3] 95 % of control

CCOC(=O)/C(=C\c1ccccc1)C(C)=O
inactive: [4] 101 % of control | [5] 92 % of control | [6] 104 % of control

CCCC1(C)NC(=O)NC1=O (stereo not given)
inactive: [1] 97 % of control | endpoint: mean survival time, dose: 100.0 mg/kg/injection, schedule: Q04DX003 (ip), vehicle: saline with Tween-80 110 % of control | [2] 98 % of control | endpoint: mean survival time, dose: 200.0 mg/kg/injection, schedule: Q04DX003 (ip), vehicle: saline with Tween-80 104 % of control | [3] 93 % of control | endpoint: mean survival time, dose: 400.0 mg/kg/injection, schedule: Q04DX003 (ip), vehicle: saline with Tween-80 102 % of control

CC1c2c(-c3ccccc3)oc(-c3ccccc3)c2C(C)C(Br)C1Br (stereo not given)
inactive: endpoint: mean survival time, dose: 100.0 mg/kg/injection, schedule: Q01DX009 (ip), vehicle: Klucel (hydroxypropylcellulose) (HPC) 121 % of control | [4] 103 % of control | endpoint: mean survival time, dose: 200.0 mg/kg/injection, schedule: Q01DX009 (ip), vehicle: Klucel (hydroxypropylcellulose) (HPC) 104 % of control | [5] 90 % of control | endpoint: mean survival time, dose: 400.0 mg/kg/injection, schedule: Q01DX009 (ip), vehicle: Klucel (hydroxypropylcellulose) (HPC) 109 % of control | [6] 92 % of control
